In patent publication US11173124B2, “Oral delivery of GLP-1 peptide analogs” (MEDIMMUNE LIMITED, priority 2017, dated 2021):
Like-named read-outs stand apart in the source and are kept apart here.

Assay: First rat intraduodenal study, sodium caprate as permeation enhancer (Example 4)
Assay type: in vivo
Details: for AUC / Cmax / Tmax / half-life: in vivo; for bioavailability: plasma
Method: Solution formulations comprising GLP-1 peptide analogs were injected into rats in the duodenum segment of the small intestine. The first ID study involved the use of sodium caprate as the permeation enhancer and the SEQ ID NO:3 GLP-1 peptide analog. Absolute bioavailability (% F) is a percentage-expressed measure of systemic drug exposure after oral, or in the current example intraduodenal, administration to the systemic exposure generated with intravenous (IV) administration of drug solution. Absolute bioavailability, (% F), is calculated as a percentage of systemic, or blood, drug concentration area under curve (AUC) of the AUC of IV administration adjusted to the amounts of drug given via these routes of administration.

[1] = Intraduodenal, 1 mg/kg peptide, 0 mg/kg sodium caprate, 0.5 mg/mL in PBS pH 8.0
[2] = 50 mg/kg, pH 8.5, rat, Intraduodenal, 50 mg/kg peptide + 50 mg/kg sodium caprate, PBS pH 8.5
[3] = iv, 0.01 mg/kg, pH 8, rat, 0.01 mg/kg peptide in PBS pH 8.0
[4] = pH 8, rat, Intraduodenal, 1 mg/kg peptide, 0 mg/kg sodium caprate, 0.5 mg/mL in PBS pH 8.0
[5] = pH 8.5, rat, Intraduodenal, 1 mg/kg peptide + 50 mg/kg sodium caprate, PBS pH 8.5
[6] = pH 8.5, rat, Intraduodenal, 10 mg/kg peptide + 50 mg/kg sodium caprate, PBS pH 8.5
[7] = sc, 0.118 mg/kg, Subcutaneous, 0.118 mg/kg peptide in 0.1% BSA-PBS

CC[C@H](C)[C@H](NC(=O)C(C)(Cc1ccccc1)NC(=O)[C@H](CCC(=O)O)NC(=O)[C@H](CCCCNC(=O)COCCOCCNC(=O)COCCOCCNC(=O)CC[C@H](NC(=O)CCCCCCCCCCCCCCCCC(=O)O)C(=O)O)NC(=O)[C@H](C)NC(=O)[C@H](C)NC(=O)[C@H](CCC(=O)O)NC(=O)CNC(=O)[C@H](CCC(=O)O)NC(=O)[C@H](CC(C)C)NC(=O)C(C)(Cc1ccccc1)NC(=O)[C@H](CO)NC(=O)C(C)(CO)NC(=O)[C@@H](NC(=O)[C@H](CC(=O)O)NC(=O)[C@H](CO)NC(=O)[C@@H](NC(=O)C(C)(Cc1ccccc1)NC(=O)[C@H](CO)NC(=O)CNC(=O)[C@H](CCC(=O)O)NC(=O)C(C)(C)NC(=O)[C@@H](N)Cc1c[nH]cn1)[C@@H](C)O)C(C)C)C(=O)N[C@@H](C)C(=O)NC(C)(Cc1ccccc1)C(=O)N[C@H](C(=O)N[C@H](C(=O)NC(C)(CCCCN)C(=O)NCC(=O)NCC(N)=O)C(C)C)C(C)C (stereo partly drawn) [SEQ ID NO: 3, Free-H-[AIB]-EGS-[αMePhe]-TSDV-[αMeSer]-S-[αMePhe]-LEGEAAK[(PEG2)2-γE-Stearate]-E-[αMePhe]-IA-[αMePhe]-VV-[αMeLys]-GG-amide]
improvement in permeation (ID, 1 mg/kg peptide, 50 mg/kg sodium caprate (to 0.15%)): ~5 fold
F (Intraduodenal, 1 mg/kg peptide + 50 mg/kg sodium caprate, PBS pH 8.5): 0.15%
F [1]: 0.035%
F (Intraduodenal, 10 mg/kg peptide + 50 mg/kg sodium caprate, PBS pH 8.5): 0.29%
F (Intraduodenal, 50 mg/kg peptide + 50 mg/kg sodium caprate, PBS pH 8.5): 0.71%
F (Intravenous, 0.01 mg/kg peptide in PBS pH 8.0): 100%
AUC [2]: 46000 ng·h/mL
Cmax [2]: 6300 ng/mL
Tmax [2]: 0.44 h
half-life (50 mg/kg, pH 8.5, rat, Intraduodenal, 50 mg/kg peptide + 50 mg/kg sodium caprate, PBS pH 8.5, read-out: T ½ (converted)): 8.3 h
AUC [3]: 1300 ng·h/mL
Cmax [3]: 210 ng/mL
Tmax [3]: 0.12 h
half-life (iv, 0.01 mg/kg, pH 8, rat, Intravenous, 0.01 mg/kg peptide in PBS pH 8.0, read-out: T ½ (converted)): 10 h
AUC [4]: 45 ng·h/mL
Cmax [4]: 5.1 ng/mL
Tmax [4]: 2.3 h
half-life (pH 8, rat, Intraduodenal, 1 mg/kg peptide, 0 mg/kg sodium caprate, 0.5 mg/mL in PBS pH 8.0, read-out: T ½ (converted)): 8.8 h
AUC [5]: 200 ng·h/mL
Cmax [5]: 34 ng/mL
Tmax [5]: 0.38 h
half-life (pH 8.5, rat, Intraduodenal, 1 mg/kg peptide + 50 mg/kg sodium caprate, PBS pH 8.5, read-out: T ½ (converted)): 9.3 h
AUC [6]: 3800 ng·h/mL
Cmax [6]: 470 ng/mL
Tmax [6]: 0.44 h
half-life (pH 8.5, rat, Intraduodenal, 10 mg/kg peptide + 50 mg/kg sodium caprate, PBS pH 8.5, read-out: T ½ (converted)): 10 h
AUC [7]: 11000 ng·h/mL
Cmax [7]: 460 ng/mL
Tmax [7]: 9 h
half-life (sc, 0.118 mg/kg, Subcutaneous, 0.118 mg/kg peptide in 0.1% BSA-PBS, read-out: T ½ (converted)): 11 h
increase of bioavailability (intraduodenal, 0.71% with 50 mg/kg sodium caprate vs 0.035% without formulation intervention): ~20 fold
bioavailability [1]: 0.035%
bioavailability (sc, Subcutaneous, 0.118 mg/kg peptide in 0.1% BSA-PBS): 71%
